Experimental data as given in US20080312331A1, “Method of Treating Dailysis-Induced Hypotension” (SOLAPHARM, INC., priority 2005, published 2008).
“Also recorded” adds a separate entry of the source.

Test: Hemodialysis session in a patient with end-stage renal disease who regularly develops hypotension during dialysis (Example 2)
Assay type: in vivo
Experimental: A patient with end-stage renal disease is scheduled for hemodialysis at 11 AM. The patient's resting blood pressure is 130/80 mm Hg. At 10:40 AM the day of the 11 AM hemodialysis, the patient swallows a tablet comprising 16 mg of desglymidodrine (approximately equal in activity to 20 mg of midodrine).
In a subsequent dialysis day, the patient swallows a desglymidodrine 16 mg. tablet 20 minutes before the onset of dialysis. […] Intravenous desglymidodrine is then promptly administered by a nurse by a push infusion at a dose of 8 mg.

## COc1ccc(OC)c(C(O)CN)c1 (stereo not drawn) [desglymidodrine]
8 mg intravenous push infusion after hypotension developed one hour into the dialysis session
  blood pressure after treatment of intradialytic hypotension: blood pressure normalizes
end-stage renal disease patient, 16 mg tablet swallowed 20 minutes before hemodialysis
  adverse symptoms during hemodialysis: no adverse symptoms are exhibited
end-stage renal disease patient, 16 mg tablet swallowed 20 minutes before onset of hemodialysis
  blood pressure during hemodialysis: blood pressure stays stable; also recorded: develops hypotension
